What was measured:
[1] = tested on: Mouse CD4^+ T cell; test: Second screen: IL-2 level of mouse CD4+ T cells
[2] = tested on: tumor infiltrating immune cells; test: Tumor immune cell analysis (macrophages, CD8, Tregs, DCs); assay type: in vivo; settings: TVA treatment
[3] = tested on: mouse CD8^+ T cells; test: RNA-sequencing of CD8+ T cells with or without TVA (also siNTC / siCreb1); assay type: cell-based; settings: 20 μM TVA, 24 h
[4] = tested on: mouse primary CD8^+ T cells; test: Phospho antibody array; assay type: cell-based
Method: The quantification for pixel density in each spot of the array was carried out by subtracting background signals from the spot intensity using software ImageJ (ImageJ, RRID: SCR_003070). Please also refer to Resources Table and Table 6 for more details.

[5] = tested on: colon tumors; test: Colon tumorigenesis in Apc+/fl; Cdx-2P-Cre-NLS mice; assay type: in vivo, mouse; settings: gavage TVA 35 mg/kg bw daily×5 days for 4 wks; lipid rich diet
[6] = tested on: primary CD4^+ T cells; test: In vitro function of activated mouse primary CD4+ T cells; assay type: cell-based; settings: TVA treatment in vitro
[7] = tested on: B16F10 tumor; test: Mouse tumor model, B16F10; assay type: in vivo; settings: B16F10 tumor-bearing C57BL/6 mice on enriched diet vs control diet
Method: For C57BL/6 mice and TCR-a KO mice tumor model, mice were anesthetized with isoflurane, shaved the injection site, and then injected subcutaneously in the abdominal flank with 1×10^5 B16F10, MC38, or LLC1 cells, or in the mammary gland with 2×10^5 E0771 cells. C57BL/6 nude mice were injected subcutaneously in the abdominal flank with 1×10^5B16F10 cells. […] Tumors were measured the tumors using a caliper every 2-3 days. Tumor volumes were calculated using the following formula: length×width×[(length×width)^0.5]×π/6. Mice were euthanized at humane endpoints or day 11-15 for tissue collection.
The mice were treated once a day for 5 consecutive days per week for 2 weeks. Tumors were measured the tumors using a caliper every 2-3 days. Tumor volumes were calculated using the following formula: length×width×[(length×width)^0.5]×π/6. Mice were euthanized at humane endpoints.
For anti-PD-1 treatment mouse model, 6-8 weeks old C57BL/6 mice were anesthetized with isoflurane, shaved the injection site, and then injected subcutaneously in the abdominal flank with 1×10^5 B16F10 for tumor development. […] In day 3, 6, 9, 12, and 15, 250 μg anti-PD-1 (BioXCell) or IgG control (BioXCell) was injected intraperitoneally per mouse. Tumors were measured the tumors using a caliper every 2-3 days. Tumor volumes were calculated using the following formula: length×width×[(length×width)^0.5]×π/6. […]

[8] = tested on: mouse primary CD8^+ T cells; test: cAMP level; assay type: cell-based; settings: 20 μM TVA; 0, 20 minutes, 40 minutes, 2 hours
[9] = tested on: mouse CD8^+ T cells; test: KAS-seq, mouse CD8+ T cells; assay type: cell-based; settings: 20 μM TVA, 20 min-2 h
Method: (§1) 500 mM N3-kethoxal was then supplemented into the media followed by brief, vigorous shaking to fully homogenize the solution. The 6-well plates were then moved into the cell incubator (37° C., 5% CO2) for 10 minutes to promote labeling of genomic single-stranded DNA (ssDNA). Cell suspensions were then transferred to 15 mL conical tubes and centrifuged at 300×g for 5 minutes at 4° C. The supernatant media was discarded, and genomic DNA was then extracted. […] Dual index libraries were constructed for high throughput sequencing using an Accel-NGS Methyl-seq DNA library kit and then sequenced at the Genomics Facility (University of Chicago) via Illumina NovaSeq 6000 (SP flowcell, 100 bp cassette) in two separate runs. […] M. musculus and H. sapiens CD8^+ T cell KAS-seq data were assessed separately.

[10] = tested on: human T cell and CD8^+ T cell treated with rhPD-L1; test: rhPD-L1 exhaustion assay of human T cells and CD8+ T cells; assay type: cell-based; settings: 20 μM TVA; 0.5 μg/mL rhPD-L1, 72 hours; IL-2, TNF-α
[11] = tested on: anti-human CD19-CD28z-GFP CAR T cells; test: CAR-T cell expansion assay; assay type: cell-based; settings: 20 μM TVA
[12] = tested on: human primary T cell; test: IL-2 production of human primary T cells; assay type: cell-based; settings: 20 μM TVA (FIG. 17B)
Source text: Two preliminary screens were designed and performed.

[13] = tested on: influenza virus; test: Influenza virus challenge of mice; assay type: in vivo, mouse
Source text: Control mice were born by mothers on normal diet, followed by normal milk feeding and normal diet since weaning.

[14] = tested on: Mouse CD8^+ T cell; test: Second screen: IL-2 level of mouse CD8+ T cells
[15] = tested on: human CD8^+ T cells; test: KAS-seq, human CD8+ T cells; assay type: cell-based; settings: 20 μM TVA, 20 min-2 h
Method: as §1

[16] = Extraction and quantification of TVA levels by NMR (mouse serum and TIF); assay type: in vivo; settings: B16F10 tumor bearing mice, TVA-enriched diet; 1H NMR
[17] = tested on: tumor-infiltrating CD8^+ T cells
Method: After incubation at 37° C. for 25 min on a shaking platform, the digested tumor tissues were transferred into a 70 μm mesh nylon strainer on a 50 mL conical tube, pushed through the strainer using the rubber end of a syringe plunger, and rinsed with the recommended medium. After centrifugation at 300×g for 10 min at room temperature with the brake on low, the resulting cell pellets were added 10 mL of ammonium chloride solution for incubation at room temperature for 5 minutes, followed by centrifugation at 300×g for 10 minutes at room temperature with the brake on low.
Freshly excised mouse tumor tissues were minced into small pieces (volume smaller than 1 mm^3) by scissors in PBS, digested by Collagenase IV (1 mg/mL) and DNase I (200 U/mL) at 37° C. for 20 minutes in PBS with gentle rocking. The digested tumor tissues were added 5 times volume 0.01M EDTA, filtered into new tube through 200 mesh screen (100 μm strainer), and then centrifuged at 300×g for 5 minutes at room temperature. The resulting cell pellets were re-suspended with 3 mL PBS, laid gently on 3 mL lymphocytes isolation liquid (pre-warmed to room temperature), and subjected to density gradient centrifugation (300×g, 30 minutes, room temperature, accelerate 6, decelerate 2). The middle layer of cells was moved carefully to a new tube, added PBS to 15 mL, and centrifuged (300×g, 10 minutes, room temperature). The cell pellets (lyse red cells if necessary) were designated tumor-infiltrating lymphocytes and used for following experiments.
Mouse spleens were disrupted with syringe plunger in 1 mL PBS in a 40 μm strainer filtered to a 15 mL tube, washed with PBS and centrifuged at 300×g for 5 minutes. The resulting cell pellets were re-suspended the with 2 mL red cell lysis buffer (Invitrogen), incubated at room temperature for 10 minutes, and centrifuged at 300×g for 5 minutes after adding 13 mL PBS. The resulting cell pellets was designated splenocytes and used for following experiments.
Draining lymph nodes were disrupted with syringe plunger in 1 mL PBS in a 40 μm strainer filtered to a 15 mL tube, washed with PBS, and centrifuged at 300×g for 5 minutes. The resulting cell pellets was designated LN Lymphocytes and used for following experiments.
Mouse primary cells isolated from tumor, spleen, draining lymph node were stained with fluorescent antibodies and analyzed by flow cytometry.
For experiments with live/dead criteria, cells were first stained with Fixable Viability Dyes (FVD) (Thermo Fisher Scientific) according to the manufacturer's instructions. Subsequent surface marker staining was performed in Flow Cytometry Staining Buffer (Thermo Fisher Scientific). Intracellular staining for flow panels containing nuclear proteins was performed using the eBioscience FoxP3/Transcription Factor Staining Buffer Set (Thermo Fisher Scientific) according to the manufacturer's instructions. For intracellular staining of cytoplasmic proteins, the Fixation/Permeabilization Solution Kit (BD Biosciences) was used according to the manufacturer's instructions.
For phospho antibody staining, cells were incubated with FVD (cell viability dye) for 15 minutes at room temperature in a tube, re-suspended with 200 μL pre-warmed 1×BD Phosflow Lyse/Fix buffer directly into the tube, and incubated at 37° C. for 10-15 minutes, followed by centrifugation at 300×g for 5 minutes. The resulting cell pellets were washed once with FACS buffer, permeabilized with 200 μL of BD Phosflow Perm Buffer III for 45 minutes on ice, and centrifuged at 300×g for 5 minutes.

## CCCCCC/C=C/CCCCCCCCCC(=O)O [TVA, trans-vaccenic acid]
[1]
  Mouse CD4^+ T cell IL-2 level changes after treatment: 155.6%
[2]
  anti-tumor immunity (CD8+ T cells, dendritic cells, Treg, TAMs): enhances anti-tumor immunity
[3]
  gene expression (RNA-seq, GSEA): enhances expression of the genes enriched in effector CD8^+ T cell function, E2F and MYC pathways
[4]; 40 min, 2 h and 6 h post-TVA treatment, reduces at 24 h
  p-CREB level (phospho-antibody array): Increased p-CREB level
[4]; 2 h and 24 h TVA treatment
  p-STAT1 level (phospho-antibody array): elevated
[4]; 2 h post-TVA treatment
  phosphorylation level of AKT (p-AKT): reduced phosphorylation level of AKT (p-AKT)
  phosphorylation level of STAT3 (p-STAT3): increased phosphorylation level of STAT3 (p-STAT3)
[4]; 24 h post-TVA treatment
  p-AKT level: increased p-AKT level at 24 h
[5]
  tumorigenesis and tumor progression (tumor multiplicity, pathology): Suppresses Tumorigenesis and Tumor Progression
[6]
  IL-2 production of primary CD4+ T cells: increased IL-2 production
  TNF-α, IFN-γ and apoptosis of primary CD4+ T cells: non-altered expression of TNF-α and IFN-γ or apoptosis
[7]
  body weights of mice: did not alter body weights
[8]
  cAMP levels in CD8+ T cells: elevates cAMP levels
[9]
  GO enrichment of altered gene bodies (KAS-seq): G-protein coupled receptor (GPCR) activities among the top-enriched ontologies
[10]
  exhaustion of primary human bulk T cells and CD8+ T cells treated with recombinant PD-L1: significantly reverses exhaustion
[11]; 3 lymphoma patients with age between 42 and 47
  in vitro expansion of CAR T cells: improves in vitro expansion
[11]; elder patient
  in vitro expansion of CAR T cells: do not respond to TVA treatment
[12]
  IL-2 production from human primary T cells: enhances IL-2 production
[13]; TVA exposure during fetal and infant stages, TVA diet since weaning
  survival after influenza virus challenge: significantly increased survival
[13]; TVA mice
  immune responses to viral exposure, male vs female: better immune responses to viral exposure compared to female TVA mice
[14]
  Mouse CD8^+ T cell IL-2 level changes after treatment: 193.6%
[15]
  GO enrichment of altered gene bodies (KAS-seq): G-protein coupled receptor (GPCR) activities among the top-enriched ontologies
[16]
  average TVA level in tumor interstitial fluid (TIF): ~48 µM
  average serum TVA level: ~386 µM
[17]; B16F10 tumors from syngeneic mice fed on TVA
  p-CREB and p-STAT1 levels in tumor-infiltrating CD8+ T cells: Increased p-CREB and p-STAT1 levels
[17]; TVA diet, B16F10 tumors
  CD4+ T cell population in TILs: not altered
  tumor-infiltrating populations of neutrophils and monocytes: markedly increases tumor-infiltrating populations of neutrophils and monocytes
[17]; TVA diet, spleens, dLNs and tumors of B16F10 tumor-bearing mice
  conventional CD4+ T cell or CD4+Foxp3+ Treg cell populations: has no effects on conventional CD4^+ T cell
[17]; dietary TVA, B16F10 tumors
  cytokine expression in tumor-infiltrating CD8+ T cells: increased expression levels of cytokines including IL-2, TNF-α, and IFN-γ
[17]; dietary TVA, tumors and spleens, not dLNs
  exhaustion of CD8+ T cells (PD-1 and LAG-3 expression): reduces exhaustion of CD8^+ T cells in tumors and spleens
[17]; enriched diet, B16F10 tumors
  CD8+ T cell population in tumor-infiltrating lymphocytes (TILs): increased CD8^+ T cell population
